Experiments:
[1] = system: cell surface Apo2L/TRAIL on NK cells; experiment: Flow cytometry of cell surface Apo2L/TRAIL on purified NK cells; type: cell-based, human; conditions: 5C2-Alexa 488 staining
Method: Cell surface Apo2L/TRAIL on purified NK cells treated with poly(I:C), R-848 or hIL-2 (30 ng/ml, BD Biosciences) was also analyzed by cytometry. Isotype control (IgG2a, Sigma) and anti-Apo2L/TRAIL antibody (5C2) were labeled with Alexa 488 (Molecular Probes). 5×10^5 cells were incubated with 2 μg of human IgG to block FcRs and 1 μg of the directly labeled mAbs at 4° C. for 45 minutes, followed by 2 washes. Stained cells were analyzed using a FACScan cytometer (Becton Dickenson) and Cellquest software.

HCT116 cells = experiment: 51Cr release cytotoxicity assay on HCT116 target cells; type: cell-based; conditions: NK cells stimulated with agent
Method: Purified NK cells were treated with poly(I:C) or R-848 and incubated with B16BL10 melanoma cells (ATCC) at the indicated ratios. Purified NK cells stimulated with R-848 were incubated with HCT116 target cells (ATCC) at the indicated ratios. The role of Apo2L/TRAIL in lysis assays in panels B and C was determined by preincubation with neutralizing (5C2) and non-neutralizing (1D1) anti-Apo2L/TRAIL mAbs. The data has been confirmed with NK cells from at least 3 donors and less that 5% SD was observed.
(§1) For the cytotoxicity assays, target cells were labeled with 100 mCi ^51Cr for 1 hour at 37° C. and then washed 3 times before use. 10^4 target cells were added to varying numbers of effector cells at the indicated ratios and incubated in duplicate wells for 4 hours at 37° C., 5% CO2, and supernatants were used to determine ^51Cr released using a Gamma counter. The cytotoxicity assays were performed in round bottom 96 well plates and the percent specific lysis was calculated as 100× (experimental cpm-spontaneous cpm)/(total cpm-spontaneous cpm). The role of Apo2L/TRAIL expressed by NK cells in the lysis of target cells was evaluated using anti-Apo2L/TRAIL mAbs (5C2 and 1D1, Genentech, Inc.). Isotype control antibodies were obtained from BD Biosciences.

[2] = system: Apo2L/TRAIL protein in NK cells; experiment: Quantitative ELISA of Apo2L/TRAIL protein in NK cell lysates or supernatants; type: cell-based, human; conditions: stimulated NK cells
Method: Resting and poly(I:C) stimulated NK cell lysates or their culture supernatants were assessed for the presence of Apo2L/TRAIL protein by quantitative ELISA (kit, BD Biosciences). To confirm Apo2L/TRAIL protein expression was increased following activation of NK cells with poly(I:C) or R848, an ELISA was performed.

4T1 cells = experiment: 51Cr release cytotoxicity assay, purified human NK cells on 4T1 target cells; type: cell-based, mouse; conditions: NK cells treated for 18 hours with agent; 4 hour incubation; E:T 1:1 to 50:1
Method: 4T1 cells (a metastatic mammary carcinoma cell line derived from BALE/C mice, obtained from Fred Miller, Karmanos Cancer Institute) were assayed in an in vitro cytotoxicity assay to examine tumoricical effects of various Toll receptor (“TLR”) activators and NK cells. The 4T1 target cells were cultured in IDMEM medium supplemented with 10% FCS, glutamine and penicillin/streptomycin, labeled with 100 mCi ^51Cr for 1 hour at 37° C. and then washed three times with culture medium.
To prepare purified effector NK cells for the assay, PBMCs from healthy human donors were isolated by standard density-gradient centrifugation over Ficoll-Paque Plus (Pharmacia). CD3 positive cells were first depleted using anti-CD3 microbeads (obtained from Miltenyi), and then the NK cells were purified using anti-CD56 microbeads (Miltenyi). The purity of the NK cell preparation was 95% or higher as determined by staining with mouse anti-human CD56 PE and mouse anti-human CD14 PE conjugates (BD Biosciences). The isolated cells were cultured in RPMI 1640 supplemented with heat inactivated 10% FCS, penicillin, streptomycin, 10 mM sodium pyruvate, 2 mM L-glutamine and 10 mM HEPES.
10^4 of the labeled 4T1 cells were added to varying numbers of purified NK cells (either untreated control NK cells or NK cells treated with specific agent) at ratios of 1:1, 3:1, 6:1, 12:1, 25:1, and 50:1, respectively. NK cells were treated for 18 hours with one of the following TLR activating agents: sBLP (1 μg/ml, Bachem); poly(I:C) (50 μg/ml, Pharmacia); E. coli 055:B5 LPS (phenol extracted, 1 μg/ml, Sigma); Flagellin (1 μg/ml, A. Gewirtz, Emory Univerity); R-848 (5 μg/ml, Invivogen); CpG oligonucleotides (2006 and 2216, 5 μM, Invivogen). The cytotoxicity assays were performed in round bottom 96 well plates, and the samples were incubated in duplicate wells for 4 hours at 37° C., 5% CO2. RPMI 1640 supplemented with heat inactivated 10% FCS, penicillin, streptomycin, 10 mM sodium pyruvate, 2 mM L-glutamine and 10 mM HEPES was used during incubation.
After the 4 hour incubation, supernatants were aspirated from the wells and examined for ^51Cr release using a Gamma counter. The percent specific lysis was calculated as 100× (experimental cpm-spontaneous cpm)/(total cpm-spontaneous cpm). The data are representative of at least three experiments and <5% SD was observed.
A cytotoxicity assay was performed as described in Example 1, except for the following modifications. Purified NK cells were treated with poly(I:C) or R-848 overnight and incubated with 4T1 cells. The role of TNF-alpha, FasL, and Apo2L/TRAIL was evaluated by preincubation of the NK cells with neutralizing antibodies to the respective ligands. The following neutralizing antibodies were added at final concentration of 2 μg/ml: anti-Fas-L (mIgG2b, R&D Systems), anti-TNF-alpha (mIgG1, Genentech), and anti-Apo2L/TRAIL (5C2, mIgG2a, ATCC HB-12258 and 1D1, mIgG2b; ATCC HB-12257). Isotype control antibodies were obtained from BD Biosciences.
as §1

Substance: poly(I:C)
- Cell surface expression of Apo2L/TRAIL on NK cells [1]: detectable cell surface expression
- Cytotoxicity of stimulated NK cells towards HCT116 cells (HCT116 cells): increased cytoxicity
- Apo2L/TRAIL protein in NK cell lysates [2]: present in a cell-associated form
- Apo2L/TRAIL released into supernatants [2]: No significant levels
- Lysis of 4T1 cells by NK cells treated with TLR activating agent (4T1 cells): efficiently lysed
